Reference: US10058612B2, “Impaired energy processing disorders and mitochondrial deficiency” (priority 2011, dated 2018)
Entries after “also recorded” stand apart in the source; their conditions may differ. Like-named read-outs stand apart in the source and are kept apart here. Values belong to the compound of their own block, whether it stands above or below them.

Columns and labels:
[1] = test system: coq null mutants (Q-less yeast); format: cell-based, S. cerevisiae; conditions: for viability of cells by quantitative colony counting / viability of coq mutants after fatty acid treatment: 200 μM fatty acid; for viability of cells by quantitative colony counting: 1, 2, 4 h; for viability of coq mutants after fatty acid treatment: plate dilution assay
Experimental: FIG. 3. […] Yeast coq3, coq7 and coq9 null mutants were prepared in the W303 yeast genetic background (WT). Yeast strains were grown in YPD medium (1% Bacto-yeast extract, 2% Bacto-peptone, 2% dextrose) and harvested while in log phase growth (OD600 nm=0.1-1.0). Cells were washed twice with sterile water and resuspended in phosphate buffer (0.10 M sodium phosphate, pH 6.2, 0.2% dextrose) to an OD600 nm=0.2. Samples were removed and 1:5 serial dilutions starting at 0.20 OD/ml were plated on YPD plate medium, to provide a zero time untreated control (shown in top left panel). The designated fatty acids were added to 200 μM final concentration to 20 ml of yeast in phosphate buffer. At 2 h, 4 h, and 16 h samples were removed, 1:5 serial dilutions prepared, and spotted onto YPD plate medium. Pictures were taken after 2 days of growth at 30° C.
FIG. 4. […] The fatty acid sensitive assay was performed as described in FIG. 3, except that 100 μl aliquots were removed at 1, 2, and 4 h and, following dilution, spread onto YPD plates. Pictures were taken after 2 to 2.5 days, and the number of colonies counted. Yeast strains include Wild type (circles), atp2 (triangles), or coq3 (squares). Fatty acid treatments include oleic C18:1 (solid line), linolenic, C18:3, n-3 (dashed line) or 11,11,14,14-D4-linolenic, C18:3, n-3, (dotted line).
Q-less yeast (coq mutants) provide an ideal system to assess in vivo autoxidation of fatty acids. Coenzyme Q (ubiquinone or Q) serves as a small lipophilic antioxidant as well as an electron shuttle in the respiratory chain of the mitochondrial inner membrane.
A plate dilution assay can be used to assess PUFA sensitivity. This assay can be performed by spotting serial five-fold dilutions of aliquots onto YPD plate media (FIG. 3). The sensitivity of the different strains can be observed by visual inspection of the density of cells in each spot.

[2] = test system: Q-less coq3 yeast strains; conditions: 200 μM total ALA and D4-Lnn
Experimental: FIG. 10. […] Serial dilutions (1:5) starting at 0.2 OD/ml were spotted on YPD solid plate medium. Growth at 30° C.
Serial dilutions (1:5) starting at 0.2 OD/ml were spotted on YPD solid plate medium. Growth was at 30° C.

[3] = Incorporation into animal tissues by isotope ratio mass-spectrometry; conditions: 0.01-100 mg/kg diet; brain, liver, heart, lung
Experimental: Brain, liver, heart, and lung tissue are removed, and homogenate samples from control mice and test compound-treated mice are analyzed for deuterium content as described for Example 7 above.

[4] = Study in patients with schizophrenia; format: in vivo; conditions: 0.01-100 mg/kg daily over six months
Experimental: (§1) Patients with schizophrenia and free of antipsychotic medication are selected for the study. […] Each week, patients are evaluated for frequency and duration of schizophrenic episodes. Additionally, blood samples are taken each week and biomarkers of oxidative stress, such as the biomarkers described above, are measured.

[5] = Study in patients suffering from Bipolar Disorder; conditions: in vivo
Experimental: as §1
A similar study can be performed with patients suffering from Bipolar Disorder.

[6] = Study in patients suffering from Huntington's disease; conditions: in vivo
Experimental: as §1
A similar study can be performed with patients suffering from Huntington's disease.

[7] = test system: Q-less coq3 yeast strains; assay: Yeast incubation with different ratios of LA to D2-LA, plate dilution; format: cell-based
Experimental: FIG. 9. […] Wild-type, yeast Q-less coq3, or respiratory deficient cor1 null mutants were incubated in the presence of 200 μM of LA and D2-LA at different ratios of PUFAs. Serial dilutions (1:5) starting at 0.2 OD/ml were spotted on YPD solid plate medium. A zero-time untreated control is shown on the top left. Growth at 30° C.
Wild-type, yeast Q-less coq3, or respiratory deficient cor1 null mutants were incubated in the presence of 200 μM of LA and D2-LA at different ratios of PUFAs, as indicated in FIG. 9. Serial dilutions (1:5) starting at 0.2 OD/ml were spotted on YPD solid plate medium. […] Growth was at 30° C.

[8] = test system: coq null mutants (Q-less yeast); conditions: cited from earlier work
[9] = test system: wild-type (strain W303-1B) cells; conditions: four hour treatment; cited from earlier work
[10] = Kinetics of O2 consumption during AMVN-initiated oxidation (glass capillary microvolumeter); format: physicochemical; conditions: for rate of oxidation, ROX: 0.71 M in chlorobenzene, 40 mM AMVN
Experimental: FIG. 7. Kinetics of O2 consumption accompanied the oxidation of 0.71 M LA (plots 1 and 2) and 0.71 M D2-LA (plot 3) in chlorobenzene initiated by 40 mM AMVN at 37° C. Plot 2-0.23 mM HPMC was added to 0.71 M LA.
The kinetics of oxygen consumption during the oxidation of LA and D2-LA was studied with a glass capillary microvolumeter (FIG. 7). The rate of oxidation, ROX, was measured as a slope of [O2] traces. The rate of initiation, RIN, was determined by the inhibitor method with HPMC (“6-hydroxy-2,2,5,7,8-pentamethylbenzochroman”) as a reference inhibitor. RIN was calculated from the induction period of inhibited oxidation, tIND: RIN=2·[HPMC]/tIND. […] See Carpenter, “Determination of Organic Reaction Mechanisms” (John Wiley & Sons, 1984), p. 89.

[11] = Kinetics of oxidation of mixtures of D2-LA and LA; format: physicochemical
Experimental: FIG. 8. Dependence of the rate of oxidation of the mixture of LA and D2-LA in chlorobenzene solution on mixture composition. Conditions: [LA]+[11,11-d2-LA]=0.775 M; [AMVN]=0.0217 M; 37° C. RIN=(1.10±0.08)×10^−7 M/sec.
To simulate the likely in vivo conditions, the kinetics of the oxidation of the mixtures of D2-LA and LA were studied (FIG. 8). In the experiments, the concentration of LA plus 11,11-d2-LA was 0.775 M; the concentration of AMVN was 0.0217 M; and the reactions were carried out at 37° C. The results afforded an RIN of 1.10±0.08×10^−7 M/sec.

[12] = test system: Wild-type yeast cells; assay: C11-Bodipy 581/591 lipid peroxidation in copper-stressed yeast; format: cell-based; conditions: 200 μM fatty acid 2 hours, then 50 μM CuSO4 60 min
Experimental: Wild-type yeast cells were treated as described above except yeast were treated with 200 μM of the designated fatty acid for 2 hours, washed with sterile water, and were either not treated (triangles) or treated with 50 μM CuSO4 (squares) at room temperature. After 60 min of copper treatment cells were treated with 8 μM C11-Bodipy 581/591 for 30 min at room temperature. Four 100 μl aliquots were plated in a 96-well plate and the fluorescence was measured.

[13] = design: species or system WT mice; conditions: both, mouse, in vivo, 90 days
From the text: WT mice were housed at 12 animals (males separate from females) per cage and fed for 90 days ad libitum (typically, 5-6 g/day) on the AIN 93 diet, as pellets, with 6% total fat. […] The animals were sacrificed, organs harvested and stored at low temperature prior to analysis without the use of preservation agents.

[14] = test system: m-Fibroblasts (Frda^L3/L-; h-I54F); assay: Friedreich's ataxia model: viability of FAC/BSO-treated fibroblasts (Promega Cell-Glow); format: cell-based; conditions: for cell survival on co-administration with idebenone: compared with individual administration of idebenone, D-LA, or D-ALA
Experimental: m-Fibroblasts (Frda^L3/L-; h-I54F) have both frataxin alleles deleted and over-express a mutated form of human frataxin (I154F) that is associated with the disease. […] Cells were plated in 48 well-plates and treated with FAC and BSO for 48 h and 24 h respectively. […] At the end of the experiment, cell viability was assessed by the Promega Cell-Glow kit and measured in Arbitrary Luminescence Units (ALU) also expressed as % survival (FIG. 22). In FIG. 22, NT stands for not treated; F stands for iron ammonium citrate; B stands for buthionine sulphoximine; CC stands for carrier control DMSO (dimethylsulfoxide) used to bring the final concentration in the assay to 0.5%; and IDB stands for idebenone.
Likewise, an investigation was undertaken to measure the effects of co-administering idebenone with D-PUFAs (FIG. 23).
Additional experiments were also performed to study the effects of co-administering different D-PUFAs (data not shown). I154F cells were treated with either 100% D-LA, 75% D-LA/25% D-ALA, 50% D-LA/50% D-ALA, and 100% D-ALA.

Compound: 11,11,14,14-Tetradeutero-cis,cis,cis-octadeca-8,12,15-trienoic acid [D4-ALA]
viability of cells by quantitative colony counting [1]: similar
viability of coq mutants after fatty acid treatment ([1]; listed as D4-linolenic acid): resistant to PUFA-mediated cell killing; also recorded: not killed
minimal amount sufficient to cancel the toxicity of ALA [2]: 15-20%
presence in tissues and cells (deuterium content) [3]: expected to be found in the tissues and cells analyzed
levels of biomarkers associated with oxidative stress [4]: reduce the levels of biomarkers associated with oxidative stress
levels of biomarkers associated with oxidative stress [5]: reduce the levels of biomarkers associated with oxidative stress
levels of biomarkers associated with oxidative stress [6]: reduce neuronal cell death and the levels of biomarkers associated with oxidative stress

Compound: [2H]C(/C=C\CCCCC)/C=C\CCCCCCCC(=O)O (centres unmarked) [11,11-D,H-LA, [11-^2H]-linoleic acid]
cell viability ([7]; after 3 hours of treatment, data not shown): no detectable loss in cell viability

Compound: [2H]C([2H])(/C=C\C/C=C\CC)C/C=C\CCCCCCC(=O)O [11, 11-D2-linolenic acid, 11,11-Dideutero-cis,cis,cis-octadeca-8,12,15-trienoic acid]
viability of coq mutants after fatty acid treatment [1]: comparable protection

Compound: [2H]C([2H])(/C=C\CC)/C=C\CC/C=C\CCCCCCC(=O)O [14, 14-D2-linolenic acid, 14,14-Dideutero-cis,cis,cis-octadeca-8,12,15-trienoic acid]
viability of coq mutants after fatty acid treatment [1]: comparable protection

Compound: CC/C=C\C/C=C\C/C=C\CCCCCCCC(=O)O [ALA, cis,cis,cis-9,12,15-Octadecatrienoic acid, reference compound]
viability of coq mutants after fatty acid treatment [1]: dramatic loss of viability
reduction of viability of the coq mutants ([1]; treatment for 4 h, colony counting): more than 100 fold
viable Q-less (coq2, coq3, and coq5) yeast mutants ([8]; four hour treatment): Less than 1%
wild-type cells remaining viable [9]: 70%

Compound: [2H]C([2H])(/C=C\CCCCC)/C=C\CCCCCCCC(=O)O [D2-LA, 11,11-Dideutero-cis,cis-octadeca-9,12-dienoic acid]
effect of addition of HPMC on oxidation [10]: did not result in the decrease in ROX and the appearance of any detectable induction period
length of the kinetic chain, ν=ROX/RIN [10]: ≈ 1.1
rate of oxidation, ROX ([10]; 37° C.): 1.8e-07 M/s
kinetic isotope effect (KIE) from ROX for LA and D2-LA ([10]; chlorobenzene, 37° C.): ≈ 35
protection of non-deuterated LA against autoxidation ([11]; mixture with LA): ‘protects’ the non-deuterated LA against autoxidation
protection against autoxidation ([11]; mixture with non-deuterated methyl linoleate, data not shown): qualititatively similar effect
minimal amount sufficient to cancel the toxicity of LA ([7]; 200 μM total LA and D2-LA): 10-15%
levels of lipid peroxidation [12]: lower levels of lipid peroxidation similar to yeast not treated with PUFA
total fat being deuterated, liver [13]: about 32%
levels of biomarkers associated with oxidative stress [4]: reduce the levels of biomarkers associated with oxidative stress
levels of biomarkers associated with oxidative stress [5]: reduce the levels of biomarkers associated with oxidative stress
levels of biomarkers associated with oxidative stress [6]: reduce neuronal cell death and the levels of biomarkers associated with oxidative stress

Compound: [2H]C([2H])(/C=C\CCCCC)/C=C\CCCCCCCC(=O)O [D-LA]
cell viability (ALU, % survival) ([14]; FAC 48 h, BSO 24 h, PUFA added 2 hours after BSO): dose-dependent rescue of viability
cell survival on co-administration with idebenone [14]: increased cell survival

length of the kinetic chain, ν=ROX/RIN [10]: 38±3
rate of oxidation, ROX ([10]; 37° C.): 6.1e-06 M/s
oxidizability ([10]; n=5): 0.0215±0.008 M^−0.5s^−0.5
Compound: CCCCC/C=C\C/C=C\CCCCCCCC(=O)O [LA, cis,cis-9,12-Octadecadienoic acid, reference compound]

Compound: CCCCC/C=C\C/C=C\C/C=C\C/C=C\CCCC(=O)O [arachidonic acid]
sensitivity of Q-less yeast to the fatty acid [8]: hypersensitive

Compound: CCCCCCCC/C=C\CCCCCCCC(=O)O [oleic acid, reference compound]
viability of cells by quantitative colony counting [1]: similar
sensitivity of Q-less yeast to the fatty acid [8]: behave the same as the wild-type parental strain

Compound: D-ALA
cell survival on co-administration with idebenone [14]: increased cell survival
